Reference: patent US11440870B2, “Cannabidiolic acid esters compositions and uses thereof” (Yissum Research Development Company of the Hebrew …, priority 2017, dated 2022)

Assays:
[1] = biological target: T1, human 5-HT1A receptors (Homo sapiens, UniProt P08908); assay: [35S]-GTPγS binding assay: enhancement of 8-OH-DPAT-induced stimulation, human 5-HT1A CHO cell membranes; type: biochemical; details: n=6
T1 construct: expressed in transfected cells; membranes used
T1 sequence (P08908 1-422): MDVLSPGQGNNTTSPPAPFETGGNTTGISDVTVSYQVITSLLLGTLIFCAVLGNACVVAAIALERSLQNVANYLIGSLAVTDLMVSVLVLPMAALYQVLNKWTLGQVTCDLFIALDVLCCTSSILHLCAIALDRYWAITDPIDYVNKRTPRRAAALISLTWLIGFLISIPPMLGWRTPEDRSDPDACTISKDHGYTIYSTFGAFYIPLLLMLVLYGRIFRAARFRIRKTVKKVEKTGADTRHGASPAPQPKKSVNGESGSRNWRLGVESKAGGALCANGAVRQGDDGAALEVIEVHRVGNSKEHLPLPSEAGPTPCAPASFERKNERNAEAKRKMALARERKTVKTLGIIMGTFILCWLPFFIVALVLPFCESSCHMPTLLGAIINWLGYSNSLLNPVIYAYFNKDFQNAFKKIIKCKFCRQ
Method: CHO cells stably transfected with cDNA encoding human 5-HT1A receptors (a generous gift from Dr Keith Parker) were maintained at 37° C. and 5% CO2 in Gibco™ Ham's F-12 Nutrient Mix supplied by Fisher Scientific UK Ltd that was supplemented both with 2 mM L-glutamine, 10% FBS and 0.6% penicillin-streptomycin, all also supplied by Fisher Scientific UK Ltd, and with the disulphate salt of G418 [(2R,3S,4R,5R,6S)-5-amino-6-{[(1R,2S,3S,4R,6S)-4,6-diamino-3-{[(2R,3R,4R,5R)-3,5-dihy-droxy-5-methyl-4-(methylamino)oxan-2-yl]oxy}2-hydroxy cyclohexyl]oxy}-2-[(1R)-1-hydroxyethyl]oxane-3,4-diol; […]] supplied by Sigma-Aldrich UK.
[^35S]-GTPγS binding assay. Each assay was carried out with human 5-HT1A CHO cell membranes (50 μg protein per well), GTPγS-binding buffer (50 mM Tris-HCl; 50 mM Tris-Base; 5 mM MgCl2; 1 mM EDTA; 100 mM NaCl; 1 mM DTT and 0.1% BSA), 0.1 nM [^35S]-GTPγS and 30 μM GDP, in a final volume of 500 μL (Cascio et al., 2010). Binding was initiated by the addition of [^35S]-GTPγS to the wells. Non-specific binding was measured in the presence of 30 μM GTPγS. Assays were performed at 30° C. for 60 min (Cascio et al., 2010). The reaction was terminated by a rapid vacuum filtration method using Tris-binding buffer as described previously by Cascio et al. (2010), and the radioactivity was quantified by liquid scintillation spectrometry. In all the [^35S]-GTPγS-binding assays, 0.1 nM [^35S]-GTPγS was used, […] and a protein concentration of […]. CBDA, HU-580, 8-OH-DPAT and WAY100635 were stored at −20° C. as 10 mM stock solutions dissolved in DMSO.
Net agonist-stimulated [^35S]-GTPγS binding values were calculated by subtracting basal binding values (obtained in the absence of agonist) from agonist-stimulated values (obtained in the presence of agonist) (Cascio et al., 2010). Values are expressed as means and variability as SEM or as 95% confidence limits. Mean EC50 and mean maximal effect (Emax) values, and SEM or 95% confidence limits of these values, have been calculated by nonlinear regression analysis using the equation for a sigmoid concentration-response curve (GraphPad Prism). P values<0.05 were considered significant. The data and statistical analysis comply with the recommendations on experimental design and analysis in pharmacology (Curtis et al., 2015).

[2] = Stability on storage at 4° C.; details: stored at 4° C. (21 days for the comparison)
[3] = system: LiCl-induced conditioned gaping (acute nausea) in rats; details: i.p.; literature (Bolognini et al., 2013; Rock et al.); cited from earlier work
[4] = system: anxiety-like responding in rats; details: i.p.; literature (Rock et al., 2017); cited from earlier work

| Compound | Effect of the compound by itself on [35S]-GTPγS binding (agonist or inverse agonist behaviour) ([1]; administered by itself at 0.01, 0.1, 1, 10 or 100 nM, data not shown) | Emax ([1]; pretreatment 0.001 nM HU-580 (FIG. 2A)) [%] | Emax ([1]; pretreatment 0.001 nM HU-580 (FIG. 2B), * P<0.05 vs vehicle) [%] | Emax ([1]; pretreatment 0.1 nM HU-580 (FIG. 2C), * P<0.05 vs vehicle) [%] | Emax ([1]; pretreatment 1.0 nM HU-580 (FIG. 2D), * P<0.05 vs vehicle) [%] | Emax ([1]; pretreatment 10 nM HU-580 (FIG. 2E), * P<0.05 vs vehicle) [%] | Emax ([1]; pretreatment 100 nM HU-580 (FIG. 2F)) [%] | Stability when stored [2] | Emax ([1]; pretreatment 0.01 nM CBDA (FIG. 1A)) [%] | Emax ([1]; pretreatment 0.1 nM CBDA (FIG. 1B), * P<0.05 vs vehicle) [%] | Emax ([1]; pretreatment 1.0 nM CBDA (FIG. 1C), * P<0.05 vs vehicle) [%] | Emax ([1]; pretreatment 10 nM CBDA (FIG. 1D), * P<0.05 vs vehicle) [%] | Emax ([1]; pretreatment 100 nM CBDA (FIG. 1E)) [%] | Dose as low as which anti-nausea effects are induced (vomiting in Suncus murinus, conditioned gaping in rats) [3] [µg/kg] | Doses as low as which anxiolytic-like effects are produced under conditions of high stress [4] [µg/kg] |
| --- | --- | --- | --- | --- | --- | --- | --- | --- | --- | --- | --- | --- | --- | --- | --- |
| C=C(C)[C@@H]1CCC(C)=C[C@H]1c1c(O)cc(CCCCC)c(C(=O)OC)c1O [HU-580, Cannabidiolic Acid Methyl Ester] | did not behave as a 5-HT1A receptor agonist or inverse agonist | 99.8 | 127 | 125 | 140 | 139 | 92 | more stable than CBDA | – | – | – | – | – | – | – |
| C=C(C)[C@@H]1CCC(C)=C[C@H]1c1c(O)cc(CCCCC)c(C(=O)O)c1O [CBDA, Cannabidiolic acid] | – | – | – | – | – | – | – | – | 95.6 | 115 | 167 | 144 | 109 | 1 | 0.1 |
